This is an account of results in ChEMBL document CHEMBL3774317, “Design and synthesis of novel tamoxifen analogues that avoid CYP2D6 metabolism” (Eur J Med Chem, 2016).

SMILES strings stand for the structures.

What all share (type): functional
A short description of experiment [1]: Cytotoxicity against human RPMI8226 cells assessed as cell growth at 5 uM after 48 hrs by SRB assay. The note with it: RPMI-8226, 48 h, read-out: Activity. In general terms: Sulforhodamine B stains cellular protein and so reports cell mass.
Experiment [2] concerns CCRF-CEM. Kind of experiment: Cytotoxicity against human CCRF-CEM cells assessed as cell growth at 5 nM after 48 hrs by SRB assay. The note with it: read-out: Activity.
The nature of experiment [3]: Cytotoxicity against human SF295 cells assessed as cell growth at 0.5 uM after 48 hrs by SRB assay. The following applies: SF-295, 48 h, read-out: Activity.
A short description of experiment [4]: Cytotoxicity against human OVCAR3 cells assessed as cell growth at 50 nM after 48 hrs by SRB assay. The note with it: OVCAR-3, 48 h, read-out: Activity.
The subject of experiment [5] is NCI-H322M. Kind of experiment: Cytotoxicity against human NCI-H322M cells assessed as cell growth at 5 uM after 48 hrs by SRB assay. The note with it: read-out: Activity.
The next experiment deals with NCI-H226. Nature of the experiment: Cytotoxicity against human NCI-H226 cells assessed as cell growth at 5 uM after 48 hrs by SRB assay. The following applies: NCI-H226, 48 h, read-out: Activity.
The test system of a further experiment is Malme-3M. Kind of experiment: Cytotoxicity against human MALME-3M cells assessed as cell growth at 50 uM after 48 hrs by SRB assay. The following applies: read-out: Activity.
Experiment [6] can be described thus: Cytotoxicity against human UACC62 cells assessed as cell growth at 5 uM after 48 hrs by SRB assay. The following applies: UACC-62, 48 h, read-out: Activity.
The next experiment relates to ACHN. Kind of experiment: Cytotoxicity against human ACHN cells assessed as cell growth at 5 nM after 48 hrs by SRB assay. The following applies: read-out: Activity.
Experiment [7] in a line: Cytotoxicity against human NCI-ADR-RES cells assessed as cell growth at 50 uM after 48 hrs by SRB assay. The note with it: read-out: Activity.
Experiment [8] is described as follows: Cytotoxicity against human RXF393 cells assessed as cell growth at 5 uM after 48 hrs by SRB assay. The following applies: RXF 393, 48 h, read-out: Activity.
Experiment [9] can be described thus: Cytotoxicity against human SF295 cells assessed as cell growth at 5 nM after 48 hrs by SRB assay. The note with it: SF-295, 48 h, read-out: Activity.
The test system of experiment [10] is EKVX. Nature of the experiment: Cytotoxicity against human EKVX cells assessed as cell growth at 5 nM after 48 hrs by SRB assay. The note with it: read-out: Activity.
A short description of experiment [11]: Cytotoxicity against human BT549 cells assessed as cell growth at 0.5 uM after 48 hrs by SRB assay. The following applies: BT-549, 48 h, read-out: Activity.
The nature of experiment [12]: Cytotoxicity against human LOXIMVI cells assessed as cell growth at 5 nM after 48 hrs by SRB assay. The following applies: LOX IMVI, read-out: Activity.
Experiment [13] in a line: Cytotoxicity against human MOLT4 cells assessed as cell growth at 50 nM after 48 hrs by SRB assay. The following applies: MOLT-4, 48 h, read-out: Activity.
A short description of experiment [14]: Cytotoxicity against human Hs 578T cells assessed as cell growth at 50 uM after 48 hrs by SRB assay. The note with it: read-out: Activity.
The nature of experiment [15]: Cytotoxicity against human UACC257 cells assessed as cell growth at 50 nM after 48 hrs by SRB assay. The following applies: UACC-257, 48 h, read-out: Activity.
For a further experiment, the system named is T47D. Kind of experiment: Cytotoxicity against human T47D cells assessed as cell growth at 5 uM after 48 hrs by SRB assay. The note with it: read-out: Activity.
For a further experiment, the system named is MCF7. Nature of the experiment: Cytotoxicity against human MCF7 cells assessed as cell growth at 0.5 uM after 48 hrs by SRB assay. The following applies: MCF7, 48 h, read-out: Activity.
Experiment [16] has as its system NCI-H322M. Kind of experiment: Cytotoxicity against human NCI-H322M cells assessed as cell growth at 50 nM after 48 hrs by SRB assay. The following applies: read-out: Activity.
Experiment [17] has as its system K562. Nature of the experiment: Cytotoxicity against human K562 cells assessed as cell growth at 10^-6 M after 48 hrs by SRB assay. The note with it: K562, 48 h, read-out: Activity.
Experiment [18] has as its system A549. Nature of the experiment: Cytotoxicity against human A549 cells assessed as cell growth at 10^-5 M after 48 hrs by SRB assay. The note with it: A549, 48 h, read-out: Activity.
Experiment [19] deals with EKVX. Nature of the experiment: Cytotoxicity against human EKVX cells assessed as cell growth at 10^-6 M after 48 hrs by SRB assay. The note with it: read-out: Activity.
Experiment [20] in a line: Cytotoxicity against human HOP92 cells assessed as cell growth at 10^-8 M after 48 hrs by SRB assay. The note with it: HOP-92, 48 h, read-out: Activity.
Experiment [21] is described as follows: Cytotoxicity against human HCC2998 cells assessed as cell growth at 10^-5 M after 48 hrs by SRB assay. The following applies: HCC 2998, 48 h, read-out: Activity.
In experiment [22] the test system is K562. Kind of experiment: Cytotoxicity against human K562 cells assessed as cell growth at 10^-4 M after 48 hrs by SRB assay. The following applies: K562, 48 h, read-out: Activity.
The subject of experiment [23] is K562. Nature of the experiment: Cytotoxicity against human K562 cells assessed as cell growth at 10^-8 M after 48 hrs by SRB assay. The following applies: K562, 48 h, read-out: Activity.
Experiment [24] can be described thus: Cytotoxicity against human UACC257 cells assessed as cell growth at 10^-8 M after 48 hrs by SRB assay. The note with it: UACC-257, 48 h, read-out: Activity.
Experiment [25] in a line: Cytotoxicity against human OVCAR4 cells assessed as cell growth at 10^-4 M after 48 hrs by SRB assay. The note with it: OVCAR-4, 48 h, read-out: Activity.
Experiment [26] can be described thus: Cytotoxicity against human OVCAR5 cells assessed as cell growth at 10^-6 M after 48 hrs by SRB assay. The following applies: OVCAR-5, 48 h, read-out: Activity.
A short description of experiment [27]: Cytotoxicity against human LOXIMVI cells assessed as cell growth at 10^-7 M after 48 hrs by SRB assay. The following applies: LOX IMVI, read-out: Activity.
A short description of experiment [28]: Cytotoxicity against human HCT15 cells assessed as cell growth at 10^-5 M after 48 hrs by SRB assay. The note with it: HCT-15, 48 h, read-out: Activity.
In experiment [29] the test system is CCRF-CEM. Kind of experiment: Cytotoxicity against human CCRF-CEM cells assessed as cell growth at 10^-5 M after 48 hrs by SRB assay. The note with it: read-out: Activity.
The nature of experiment [30]: Cytotoxicity against human OVCAR5 cells assessed as cell growth at 10^-7 M after 48 hrs by SRB assay. The following applies: OVCAR-5, 48 h, read-out: Activity.
The next experiment has as its system NCI-H522. Kind of experiment: Cytotoxicity against human NCI-H522 cells assessed as cell growth at 10^-4 M after 48 hrs by SRB assay. The following applies: NCI-H522, 48 h, read-out: Activity.
In experiment [31] the test system is A549. Nature of the experiment: Cytotoxicity against human A549 cells assessed as cell growth at 10^-7 M after 48 hrs by SRB assay. The note with it: A549, 48 h, read-out: Activity.
In another experiment the test system is SK-MEL-28. Kind of experiment: Cytotoxicity against human SK-MEL-28 cells assessed as cell growth at 10^-7 M after 48 hrs by SRB assay. The following applies: SK-MEL-28, 48 h, read-out: Activity.
A short description of experiment [32]: Cytotoxicity against human RXF393 cells assessed as cell growth at 10^-4 M after 48 hrs by SRB assay. The following applies: RXF 393, 48 h, read-out: Activity.
Another experiment concerns SK-MEL-2. Nature of the experiment: Cytotoxicity against human SK-MEL-2 cells assessed as cell growth at 10^-6 M after 48 hrs by SRB assay. The note with it: SK-MEL-2, 48 h, read-out: Activity.
Experiment [33] can be described thus: Cytotoxicity against human MOLT4 cells assessed as cell growth at 10^-6 M after 48 hrs by SRB assay. The following applies: MOLT-4, 48 h, read-out: Activity.
A short description of experiment [34]: Cytotoxicity against human UACC257 cells assessed as cell growth at 10^-6 M after 48 hrs by SRB assay. The following applies: UACC-257, 48 h, read-out: Activity.
The nature of experiment [35]: Cytotoxicity against human SW620 cells assessed as cell growth at 10^-6 M after 48 hrs by SRB assay. The note with it: SW-620, 48 h, read-out: Activity.

As for `CCCCCCCCCC(=O)Oc1ccc(/C(=C(/C)c2ccccc2)c2ccc(OCCN3CCCC3)cc2)cc1`, the growth at 5 µM in [1] came to 86%; in the experiment on NCI-H322M [5], 85%; with NCI-H226, 97%; in experiment [6], 100%; in experiment [8], 73%; with T47D, 52%. In addition, the growth at 0.005 µM worked out at 95% with CCRF-CEM [2]; 101% in the experiment on ACHN; 94% in experiment [9]; 102% in the experiment with EKVX [10]; 97% in experiment [12]. Also, the growth at 0.5 µM came to 79% in experiment [3], 83% in experiment [11] and 29% with MCF7. The growth at 0.05 µM turned out to be 104% in [4], 91% in [13], 102% in experiment [15] and 93% with NCI-H322M [16]. Further, the growth at 50 µM was -82% in the experiment with Malme-3M, -73% in experiment [7] and -18% in experiment [14].
For `C/C(=C(/c1ccc(O)cc1)c1ccc(OCCN2CCCC2)cc1)c1ccccc1`, the growth at 1 µM came to 81% in the experiment with K562 [17]; 78% with EKVX [19]; 85% in [26]; 99% with SK-MEL-2; 92% in experiment [33]; 104% in experiment [34]. Besides, the growth at 1 µM in experiment [35] is 101%. Besides, the growth at 10 µM in the experiment with A549 [18] was 4%; in [21] it was -25%; in [28], -41%; with CCRF-CEM [29], -1%. Further, the growth at 0.01 µM in experiment [20] came to 98%; in the experiment with K562 [23] it was 99%; in experiment [24], 96%. Besides, the growth at 100 µM was -70% with K562 [22], -96% in experiment [25], -82% in the experiment on NCI-H522 and -81% in [32]. Moreover, the growth at 0.1 µM worked out at 95% in [27], 90% in experiment [30], 102% in the experiment with A549 [31] and 97% with SK-MEL-28.
